Test results as given in ChEMBL document CHEMBL1127715, “Perhydrothiopyranopyrroles derivatives : A novel series of potent and selective nonpeptide NK1 antagonists” (Bioorg Med Chem Lett, 1994).

Legend:
Substance-P receptor [1] = target: T1, Substance-P receptor (Homo sapiens, UniProt P25103); test: Compound was evaluated for its affinity, measured in [3H]SP binding assay on human IM9 lymphoblast cultured cell line
Substance-P receptor [2] = target: T1, Substance-P receptor; test: Compound was evaluated for binding affinity against human Tachykinin receptor 1
Cavia porcellus = species: Cavia porcellus; test: Compound was evaluated for antagonism of the contractile effect in guinea pig ileum preparation; assay type: functional
Substance-P receptor [3] = target: Substance-P receptor (Cavia porcellus, UniProt P30547); test: Compound was evaluated for its affinity to guinea pig Tachykinin receptor 1
Substance-P receptor (Cavia porcellus, UniProt P30547), sequence (P30547 whole entry): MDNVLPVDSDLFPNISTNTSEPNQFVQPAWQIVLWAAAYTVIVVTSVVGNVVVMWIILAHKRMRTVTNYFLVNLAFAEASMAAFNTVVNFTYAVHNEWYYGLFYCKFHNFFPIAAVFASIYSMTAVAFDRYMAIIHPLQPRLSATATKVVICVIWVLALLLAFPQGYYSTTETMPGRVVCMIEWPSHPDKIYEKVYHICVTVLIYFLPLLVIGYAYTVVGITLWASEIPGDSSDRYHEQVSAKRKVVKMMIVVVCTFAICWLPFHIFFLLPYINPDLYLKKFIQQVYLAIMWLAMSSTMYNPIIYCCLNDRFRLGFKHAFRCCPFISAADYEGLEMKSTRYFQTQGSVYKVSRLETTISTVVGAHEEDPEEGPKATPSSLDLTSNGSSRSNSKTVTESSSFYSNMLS

Substance-P receptor [4] = target: Substance-P receptor (Rattus norvegicus, UniProt P14600); test: Compound was evaluated for its affinity to rat Tachykinin receptor 1
Substance-P receptor (Rattus norvegicus, UniProt P14600), sequence (P14600 whole entry): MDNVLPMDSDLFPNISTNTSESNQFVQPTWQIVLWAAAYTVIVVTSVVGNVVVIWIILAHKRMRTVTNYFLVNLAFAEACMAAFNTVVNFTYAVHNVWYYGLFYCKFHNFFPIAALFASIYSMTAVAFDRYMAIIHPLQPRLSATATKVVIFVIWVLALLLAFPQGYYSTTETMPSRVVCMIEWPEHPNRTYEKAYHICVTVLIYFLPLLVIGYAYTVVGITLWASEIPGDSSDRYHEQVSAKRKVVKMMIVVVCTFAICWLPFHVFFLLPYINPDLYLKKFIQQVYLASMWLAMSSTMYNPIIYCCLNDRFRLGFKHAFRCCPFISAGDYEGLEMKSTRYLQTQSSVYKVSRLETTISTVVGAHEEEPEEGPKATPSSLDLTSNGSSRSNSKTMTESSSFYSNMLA

Mus musculus = species: Mus musculus; test: Compound was evaluated for inhibiting PBQ induced writhing in mice perorally; assay type: functional

T1 sequence (P25103 whole entry): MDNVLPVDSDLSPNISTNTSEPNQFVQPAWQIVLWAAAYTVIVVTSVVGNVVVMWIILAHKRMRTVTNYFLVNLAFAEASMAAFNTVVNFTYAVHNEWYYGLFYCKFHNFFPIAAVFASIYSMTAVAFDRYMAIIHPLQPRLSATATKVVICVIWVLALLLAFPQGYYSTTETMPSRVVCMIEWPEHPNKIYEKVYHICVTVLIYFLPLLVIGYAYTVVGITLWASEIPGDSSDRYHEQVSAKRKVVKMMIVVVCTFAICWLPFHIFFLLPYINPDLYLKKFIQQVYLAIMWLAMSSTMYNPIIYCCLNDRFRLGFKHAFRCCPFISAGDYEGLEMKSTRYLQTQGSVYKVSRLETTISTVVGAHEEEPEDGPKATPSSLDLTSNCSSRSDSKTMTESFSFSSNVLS

Structure (SMILES): COc1ccccc1[C@H](C)C(=O)N1CC2[C@@H](C1)C(c1ccccc1)(c1ccccc1)CC[S+]2[O-] (stereo partly specified)
- IC50 (Substance-P receptor [1]): 49 nM
- IC50 (Substance-P receptor [2]): 23 nM
- IC50 (Cavia porcellus): 20 nM
- IC50 (Substance-P receptor [3]): 70 nM
- IC50 (Substance-P receptor [4]): 10 nM
- ED50 (Mus musculus): 5 mg/kg
